# Reference: patent publication US6355410B1, “Method of reducing cell proliferation by inhibiting the Na+/H+ exchanger and inducing apoptosis” (priority 1998, dated 2002)
# Legend:
# [1] = system: normal peripheral blood (PB) cells; assay: Intracellular pH (SNARF, flow cytometry) of peripheral blood incubated with phorbol ester; format: cell-based, human; settings: PB incubated with phorbol ester (10^-6 M PMA, 5 min); unstimulated PB 7.03±0.04
# Protocol: The pHi and the percentage of cells in S-phase of the cell cycle were simultaneously determined in aliquots of the same sample, using propidium iodide labeling. Prior to analysis, peripheral blood was also incubated with phorbol ester to activate the NHE-1. […] Furthermore, there was a direct correlation between pHi and proportion of cells in S-phase in both normal and neoplastic haemopoietic cells of various origins (FIG. 4). Thus, intracellular alkalinisation is associated with an increased proliferation and possibly transformation of haemopoietic cells. We hypothesized that unregulated proliferation of leukaemic cells might, at least in part, be due to suppression of normal apoptotic mechanisms. […]
# (§1) Measurement of pHi for hemopoietic cells has been described in detail elsewhere (8). Briefly, intracellular pH was measured by both flow cytometry and FRIM by incubating cells with carboxy SemiNaphthoRhodaFluor-1 acetoxymethyl ester, acetate (carboxy SNARF-1 AM, Molecular Probes, Eugene, Oreg.) for 15 min at room temperature. […] Flow cytometric results were analyzed using WinList Software (Verity Software House Inc. Topsham, ME) to obtain fluorescence ratio measurements. For both flow cytometry and FRIM analysis, the calibration curves were obtained and sample pHi values determined from the fluorescence ratio values using Table Curve software (SPSS Inc., Chicago, Ill.).
# [2] = system: normal peripheral blood (PB) cells; assay: Proportion of cells in S-phase (propidium iodide) of peripheral blood incubated with phorbol ester; format: cell-based, human; settings: untreated PB 1.19%±0.34%
# Protocol: The pHi and the percentage of cells in S-phase of the cell cycle were simultaneously determined in aliquots of the same sample, using propidium iodide labeling. Prior to analysis, peripheral blood was also incubated with phorbol ester to activate the NHE-1. […] Furthermore, there was a direct correlation between pHi and proportion of cells in S-phase in both normal and neoplastic haemopoietic cells of various origins (FIG. 4). Thus, intracellular alkalinisation is associated with an increased proliferation and possibly transformation of haemopoietic cells. We hypothesized that unregulated proliferation of leukaemic cells might, at least in part, be due to suppression of normal apoptotic mechanisms. In this case, inhibitors of the NHE-1 would be expected to induce apoptosis in leukaemic cells, and we therefore examined the effects of NHE-1 inhibitors upon such cells.
# Normal PB cells were incubated for 5 min with 10^−6 M phorbol-12-myristate-13-acetate (PMA, Sigma Chemical Company, St. Louis, Mo.) to non-specifically activate the NHE-1. […]
# The proportion of cells in S-phase of the cell cycle was determined using the propidium iodide technique using the CycleTEST Plus DNA reagent kit (Becton-Dickinson, San Jose, Calif.). Data were acquired by flow cytometry, and analyzed using the Modfit LT software program (Verity Software House Inc).
# NHE-1 = NHE-1 (Homo sapiens, UniProt P19634); settings: literature reference 19; cited from earlier work
# Sequence of NHE-1 (P19634 whole entry, species assumed): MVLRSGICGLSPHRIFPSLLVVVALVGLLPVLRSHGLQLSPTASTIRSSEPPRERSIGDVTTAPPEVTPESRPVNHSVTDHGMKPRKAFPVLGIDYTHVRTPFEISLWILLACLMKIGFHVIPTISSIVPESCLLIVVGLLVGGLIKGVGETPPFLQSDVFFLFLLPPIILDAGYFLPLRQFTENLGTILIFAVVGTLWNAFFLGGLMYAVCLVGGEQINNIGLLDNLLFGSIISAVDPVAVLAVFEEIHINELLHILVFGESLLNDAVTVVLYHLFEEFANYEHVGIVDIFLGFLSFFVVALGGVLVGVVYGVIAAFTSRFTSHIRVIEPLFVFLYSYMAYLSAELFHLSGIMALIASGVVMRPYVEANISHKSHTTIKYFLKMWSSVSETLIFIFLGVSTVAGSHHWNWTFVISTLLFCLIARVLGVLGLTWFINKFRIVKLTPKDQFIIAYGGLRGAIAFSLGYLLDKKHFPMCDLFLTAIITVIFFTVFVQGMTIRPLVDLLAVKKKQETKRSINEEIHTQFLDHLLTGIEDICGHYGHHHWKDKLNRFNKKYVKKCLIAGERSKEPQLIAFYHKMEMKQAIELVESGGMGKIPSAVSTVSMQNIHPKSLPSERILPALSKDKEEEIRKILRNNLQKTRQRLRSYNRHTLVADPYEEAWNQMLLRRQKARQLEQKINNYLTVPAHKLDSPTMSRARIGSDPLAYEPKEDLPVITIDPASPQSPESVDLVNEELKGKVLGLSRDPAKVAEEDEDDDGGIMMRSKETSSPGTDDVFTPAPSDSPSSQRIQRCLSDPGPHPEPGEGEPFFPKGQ
# [3] = system: normal peripheral blood cells; assay: Intracellular pH (flow cytometry and FRIM) of normal peripheral blood cells incubated with HMA; format: cell-based, human
# Protocol: Normal peripheral blood cells were incubated in the absence or presence of the NHE-1 inhibitor, 5-(N,N-hexamethylene)-amiloride (HMA), at concentrations ranging from 10^−7M to 10^−4M for up to 5h. Cells were then aliquoted so that pHi and apoptotic measurements could be performed. In these experiments, pHi was measured using both flow cytometry and fluorescence ratio imaging microscopy (FRIM). […] The proportion of necrotic cells measured by propidium iodide (PI) remained constant at about 5% in the absence or presence of HMA for each time point measured. […] It is interesting to note that both methods measured about 25% apoptotic cells when pHi was reduced to about 6.8. […]
# as §1, with “Ill.). […]” for “Ill.).”
# [4] = system: normal peripheral blood cells; format: cell-based, human
# Protocol: Normal peripheral blood cells were incubated in the absence or presence of the NHE-1 inhibitor, 5-(N,N-hexamethylene)-amiloride (HMA), at concentrations ranging from 10^−7M to 10^−4M for up to 5h. Cells were then aliquoted so that pHi and apoptotic measurements could be performed. In these experiments, pHi was measured using both flow cytometry and fluorescence ratio imaging microscopy (FRIM). […] The proportion of necrotic cells measured by propidium iodide (PI) remained constant at about 5% in the absence or presence of HMA for each time point measured. […] It is interesting to note that both methods measured about 25% apoptotic cells when pHi was reduced to about 6.8. As shown in the next section, a pHi of 6.8 appears to be a critical value below which increased apoptosis occurs.
# Two methods were used to determine if reduction in pHi induced apoptosis. The first used annexin-V conjugated to fluorescein isothiocyanate (FITC) (Pharmingen, San Diego, Calif.) to determine the translocation of phosphatidylserine from the inside to the outside of the plasma membrane. Cells were counter-stained with propidium iodide (PI) to determine the proportion of necrotic cells. Cell staining was performed according to the manufacturer's instructions. The second technique used terminal deoxynucleotidyl transferase (TdT)-mediated dUTP nick-end labeling (TUNEL) of fragmented DNA. […]
# KG-1a cells [5] = assay: Intracellular pH of KG-1a cells incubated with HMA; format: cell-based, human; settings: 10^-4M HMA, 5h, n=4, without HMA 6.9±0.08 after 5h
# Protocol: (§2) Leukaemic cell lines (KG-1a and CEM) were incubated for varying periods of time with 10^−4M HMA and pHi and apoptosis measured. For both cell lines, in the absence of HMA, pHi ranged from 7.43±0.1 at time zero to 6.9±0.08 after 5h of incubation. However, after 5h with HMA, the pHi had decreased to 5.6±0.07 (n=4) for KG-1a and 6.1±0.06 (n=4) for CEM cells. In the absence of HMA, the percentage of KG-1a and CEM cells undergoing apoptosis, measured by annexin-V, ranged from 2% to 9% for the duration of the experiment, whereas by 5h in the presence of HMA, the percentage of KG-1a or CEM cells undergoing apoptosis ranged from 70-80%. […]
# as §1, with “Ill.). […]” for “Ill.).”
# CEM cells [6] = assay: Intracellular pH of CEM cells incubated with HMA; format: cell-based, human; settings: 10^-4M HMA, 5h, n=4, without HMA 6.9±0.08 after 5h
# Protocol: as §2
# as §1, with “Ill.). […]” for “Ill.).”
# KG-1a cells [7] = assay: Apoptosis (annexin-V) of KG-1a cells incubated with HMA; format: cell-based, human; settings: 10^-4M HMA, 5h, without HMA 2% to 9%
# Protocol: (§3) Leukaemic cell lines (KG-1a and CEM) were incubated for varying periods of time with 10^−4M HMA and pHi and apoptosis measured. For both cell lines, in the absence of HMA, pHi ranged from 7.43±0.1 at time zero to 6.9±0.08 after 5h of incubation. However, after 5h with HMA, the pHi had decreased to 5.6±0.07 (n=4) for KG-1a and 6.1±0.06 (n=4) for CEM cells. In the absence of HMA, the percentage of KG-1a and CEM cells undergoing apoptosis, measured by annexin-V, ranged from 2% to 9% for the duration of the experiment, whereas by 5h in the presence of HMA, the percentage of KG-1a or CEM cells undergoing apoptosis ranged from 70-80%.
# (§4) The following human leukemic cell lines were originally obtained from ATCC (Rockville, Md.): KG-1a (BM acute myelogenous leukemia), Jurkat (acute T-cell leukemia), Molt-4 (PB acute lymphoblastic leukemia), CEM (PB acute lymphoblastic leukemia), K562 (chronic myeloid leukemia), THP-1 (acute monocytic leukemia), Nalm-6 (B-cell leukemia). All cell lines were cultured in Dulbecco's Modified Eagles Medium (DMEM) containing 10% heat-inactivated fetal bovine serum (FBS). Only cells in log phase growth were used.
# (§5) Two methods were used to determine if reduction in pHi induced apoptosis. […]
# CEM cells [8] = assay: Apoptosis (annexin-V) of CEM cells incubated with HMA; format: cell-based, human; settings: 10^-4M HMA, 5h, without HMA 2% to 9%
# Protocol: as §3, §4, §5
# KG-1a cells [9] = assay: RNA degradation in KG-1a cells by denaturing RNA gel electrophoresis; format: cell-based, human; settings: 10^-4M HMA
# [10] = system: primary ALL patient leukaemic cells; assay: Intracellular pH (FRIM and flow cytometry) of fresh ALL patient leukaemic cells incubated with HMA; format: cell-based, human; settings: 10^-4M HMA, 1h, 3h and 5h, values set at 5.0
# Protocol: (§6) Intracellular pH was measured by both FRIM and flow cytometry, while apoptosis was measured by annexin-V and TUNEL. […] For this reason, pHi values for 1h, 3h and 5h were set at 5.0. After 1h, the proportion of cells incubated with HMA undergoing apoptosis was about 85% using annexin-V and about 60% using the TUNEL technique.
# as §1, with “temperature. SNARF is excited at 488 nm and emits at 580 nm and 640 nm. The ratio of the emission wavelengths 640/580 was used (8) to estimate the pHi from a calibration curve. The calibration curve was performed using the nigericin clamp technique (21).” for “temperature.”, “Ill.). […]” for “Ill.).”
# [11] = system: primary ALL patient leukaemic cells; assay: Apoptosis (annexin-V and TUNEL) of fresh ALL patient leukaemic cells incubated with HMA; format: cell-based, human
# Protocol: as §6
# Two methods were used to determine if reduction in pHi induced apoptosis. The first used annexin-V conjugated to fluorescein isothiocyanate (FITC) (Pharmingen, San Diego, Calif.) to determine the translocation of phosphatidylserine from the inside to the outside of the plasma membrane. Cells were counter-stained with propidium iodide (PI) to determine the proportion of necrotic cells. Cell staining was performed according to the manufacturer's instructions. The second technique used terminal deoxynucleotidyl transferase (TdT)-mediated dUTP nick-end labeling (TUNEL) of fragmented DNA. Fluorochrome (FITC)-labelling of DNA (Boehringer Mannhein, Germany) was performed according to the manufacturer's instructions and measurements performed by flow cytometry.
# The amiloride analogue, HMA (Sigma Chemicals, St. Louis, Mo.) was dissolved in dimethylsulphoxide (DMSO) and a stock solution (10^−3M) prepared in DMEM. Cells were incubated at concentrations ranging from 10^−7M to 10^−4M for varying periods of time specified in the results. After incubation, cells were washed and aliquoted according to the type of measurement (pHi or apoptosis) performed. Controls included cells not treated with HMA.
# [12] = ALL patient cells, 10^-4M HMA, 1h
Structure (SMILES),pHi [1],proportion of cells in S-phase [2],potency and specificity of NHE-1 inhibition relative to amiloride (NHE-1),"inhibition (decrease of pHi), time and concentration dependence ([3]; HMA 10^-7M to 10^-4M, up to 5h, flow cytometry and FRIM)","pHi reduced to ([3]; normal PB incubated with HMA, pHi at which about 25% apoptotic cells were measured)","proportion of apoptotic cells, time and concentration dependence ([4]; HMA 10^-7M to 10^-4M, up to 5h, annexin-V and TUNEL)","apoptotic cells ([4]; normal PB with HMA, both methods (annexin-V, TUNEL), when pHi reduced to about 6.8)",pHi (KG-1a cells [5]),pHi (CEM cells [6]),"percentage of cells undergoing apoptosis, annexin-V (KG-1a cells [7])","percentage of cells undergoing apoptosis, annexin-V (CEM cells [8])",onset of RNA degradation after addition (KG-1a cells [9]),time to total RNA degradation (KG-1a cells [9]) [h],pHi measured by flow cytometry [10],"proportion of cells undergoing apoptosis, TUNEL [11, 12]","proportion of cells undergoing apoptosis, annexin-V [11, 12]","apoptotic cells, both methods (annexin-V and TUNEL) ([11]; ALL patient cells, 10^-4M HMA, 5h)",sensitivity of primary ALL cells versus normal PB ([11]; differential effect of HMA between normal and acute lymphoblastic leukaemic cells),time to induction of apoptosis ([11]; primary leukemic cells) [h],"cells either dead or undergoing apoptosis ([11]; primary leukemic cells, between 3 and 5 h of incubation)"
"CCCCCCCCCCCCCC(=O)O[C@@H]1[C@@H](C)[C@@]2(O)[C@@H](C=C(CO)C[C@]3(O)C(=O)C(C)=C[C@@H]23)[C@@H]2C(C)(C)[C@]12OC(C)=O [phorbol ester, phorbol-12-myristate-13-acetate]",7.32±0.043,8.7%±0.17%,,,,,,,,,,,,,,,,,,
"CCN(c1nc(N)c(C(=O)N=C(N)N)nc1Cl)C(C)C [EIPA, 5-(N-ethyl-N-isopropyl) amiloride]",,,greater potency and specificity of NHE-1 inhibition than amiloride itself,,,,,,,,,,,,,,,,,
"NC(N)=NC(=O)c1nc(Cl)c(N2CCCCCC2)nc1N [HMA, 5-(N,N-hexamethylene)-amiloride]",,,greater potency and specificity of NHE-1 inhibition than amiloride itself,"greatest inhibition occurred at 5h, using the highest HMA concentration",about 6.8,greatest proportion of apoptotic cells was found after 5h incubation with 10^−4M HMA,about 25%,5.6±0.07,6.1±0.06,70-80%,70-80%,began to degrade between 30 min and 1h,≤ 3,too low to calibrate,about 60%,about 85%,over 90%,greater sensitivity to HMA than normal PB,≤ 1,more than 90%
